# Laboratory results: article PMC12888861, “Antibacterial activity of enmetazobactam against Acinetobacter spp.: a molecular dissection of mechanism of action and resistance determinants” (Antimicrobial Agents and Chemotherapy, 2025)
# Like-named read-outs stand apart in the source and are kept apart here.
# System: A. non-baumannii isolates (n = 87)
# Experiment: MIC, broth microdilution (EUCAST), A. non-baumannii isolates
# Type: cell-based, Acinetobacter spp. (non-baumannii)
# Conditions: for MIC: read-out: MIC
# Excerpt: The bacterial strains used in this study comprised 208 clinical isolates from the Spanish National Acinetobacter spp. 2020 Multicenter Collection, which was previously characterized in detail by our research group, including whole-genome sequencing, phylogenetics studies, clonal dynamics, and resistance mechanisms ([2], [29]). Additionally, a collection of A. baumannii ATCC 17978 transformants coding the blaOXA-23, blaOXA-24/40, blaOXA-51, blaOXA-58, blaOXA-143, and blaOXA-201 genes, previously constructed and described by our group ([30]), was used to determine the activity of enmetazobactam against strains carrying the main CHDLs of A. baumannii.
# The antimicrobial susceptibility of the 208 Acinetobacter spp. isolates was assessed using the broth microdilution method, as described in the European Committee on Antimicrobial Susceptibility Testing (EUCAST) v.15 guidelines (http://www.eucast.org/clinical_breakpoints). […] MICs for enmetazobactam alone were assessed as well. […] Subsequently, MIC testing was also conducted with a collection of A. baumannii ATCC 17978 transformants expressing clinically relevant OXA-like carbapenemase genes.
# The A. baumannii ATCC 19606 strain was used as the reference strain in all susceptibility experiments, in duplicate assays. Antibiotics were purchased from Sigma-Aldrich, except enmetazobactam and durlobactam, which were obtained from Advanz Pharma and MedChemExpress, respectively.
# [1] = Acinetobacter, A. non-baumannii isolates (n=87), ETZ fixed 8 mg/L in combinations
structure (smiles),measurement,setting,value
C[n+]1ccn(C[C@@]2(C)[C@H](C(=O)[O-])N3C(=O)C[C@H]3S2(=O)=O)n1 [enmetazobactam],MIC,"Acinetobacter pittii, isolate NO-Ab97, Acinetobacter pittii, in combinations ETZ fixed at 8 mg/L",2 µg/mL
same,MIC,"Acinetobacter pittii, isolate NO-Ab105, Acinetobacter pittii, in combinations ETZ fixed at 8 mg/L",2 µg/mL
same,MIC,"Acinetobacter pittii, isolate NO-Ab106, Acinetobacter pittii, in combinations ETZ fixed at 8 mg/L",2 µg/mL
same,MIC,"Acinetobacter pittii, isolate NO-Ab107, Acinetobacter pittii, in combinations ETZ fixed at 8 mg/L",1 µg/mL
same,MIC,"Acinetobacter pittii, isolate NO-Ab111, Acinetobacter pittii, in combinations ETZ fixed at 8 mg/L",2 µg/mL
same,MIC,"Acinetobacter pittii, isolate NO-Ab113, Acinetobacter pittii, in combinations ETZ fixed at 8 mg/L",2 µg/mL
same,MIC,"Acinetobacter pittii, isolate NO-Ab118, Acinetobacter pittii, in combinations ETZ fixed at 8 mg/L",2 µg/mL
same,MIC,"Acinetobacter pittii, isolate NO-Ab135, Acinetobacter pittii, in combinations ETZ fixed at 8 mg/L",2 µg/mL
same,MIC,"Acinetobacter pittii, isolate NO-Ab145, Acinetobacter pittii, in combinations ETZ fixed at 8 mg/L",2 µg/mL
same,MIC,"Acinetobacter pittii, isolate NO-Ab151, Acinetobacter pittii, in combinations ETZ fixed at 8 mg/L",4 µg/mL
same,MIC,"Acinetobacter pittii, isolate NO-Ab154, Acinetobacter pittii, in combinations ETZ fixed at 8 mg/L",2 µg/mL
same,MIC,"Acinetobacter pittii, isolate NO-Ab157, Acinetobacter pittii, in combinations ETZ fixed at 8 mg/L",4 µg/mL
same,MIC,"Acinetobacter pittii, isolate NO-Ab162, Acinetobacter pittii, in combinations ETZ fixed at 8 mg/L",4 µg/mL
same,MIC,"Acinetobacter pittii, isolate NO-Ab164, Acinetobacter pittii, in combinations ETZ fixed at 8 mg/L",2 µg/mL
same,MIC,"Acinetobacter pittii, isolate NO-Ab178, Acinetobacter pittii, in combinations ETZ fixed at 8 mg/L",2 µg/mL
same,MIC,"Acinetobacter pittii, isolate NO-Ab197, Acinetobacter pittii, in combinations ETZ fixed at 8 mg/L",2 µg/mL
same,MIC,"Acinetobacter proteolyticus, isolate NO-Ab99, Acinetobacter proteolyticus, in combinations ETZ fixed at 8 mg/L",2 µg/mL
same,MIC,"Acinetobacter proteolyticus, isolate NO-Ab102, Acinetobacter proteolyticus, in combinations ETZ fixed at 8 mg/L",4 µg/mL
same,MIC,"Acinetobacter proteolyticus, isolate NO-Ab210, Acinetobacter proteolyticus, in combinations ETZ fixed at 8 mg/L",1 µg/mL
same,MIC,"Acinetobacter radioresistens, isolate NO-Ab175, Acinetobacter radioresistens, in combinations ETZ fixed at 8 mg/L",1 µg/mL
same,MIC,"Acinetobacter radioresistens, isolate NO-Ab215, Acinetobacter radioresistens, in combinations ETZ fixed at 8 mg/L",0.5 µg/mL
same,MIC,"Acinetobacter ursingii, isolate NO-Ab3, Acinetobacter ursingii, in combinations ETZ fixed at 8 mg/L",0.25 µg/mL
same,MIC,"Acinetobacter ursingii, isolate NO-Ab64, Acinetobacter ursingii, in combinations ETZ fixed at 8 mg/L",1 µg/mL
same,MIC,"Acinetobacter ursingii, isolate NO-Ab87, Acinetobacter ursingii, in combinations ETZ fixed at 8 mg/L",0.5 µg/mL
same,MIC,"Acinetobacter ursingii, isolate NO-Ab103, Acinetobacter ursingii, in combinations ETZ fixed at 8 mg/L",0.5 µg/mL
same,MIC,"Acinetobacter ursingii, isolate NO-Ab119, Acinetobacter ursingii, in combinations ETZ fixed at 8 mg/L",8 µg/mL
same,MIC,"Acinetobacter ursingii, isolate NO-Ab120, Acinetobacter ursingii, in combinations ETZ fixed at 8 mg/L",1 µg/mL
same,MIC,"Acinetobacter ursingii, isolate NO-Ab123, Acinetobacter ursingii, in combinations ETZ fixed at 8 mg/L",2 µg/mL
same,MIC,"Acinetobacter ursingii, isolate NO-Ab126, Acinetobacter ursingii, in combinations ETZ fixed at 8 mg/L",0.5 µg/mL
same,MIC,"Acinetobacter ursingii, isolate NO-Ab147, Acinetobacter ursingii, in combinations ETZ fixed at 8 mg/L",4 µg/mL
same,MIC,"Acinetobacter ursingii, isolate NO-Ab155, Acinetobacter ursingii, in combinations ETZ fixed at 8 mg/L",4 µg/mL
same,MIC,"Acinetobacter ursingii, isolate NO-Ab165, Acinetobacter ursingii, in combinations ETZ fixed at 8 mg/L",2 µg/mL
same,MIC,"Acinetobacter ursingii, isolate NO-Ab166, Acinetobacter ursingii, in combinations ETZ fixed at 8 mg/L",0.5 µg/mL
same,MIC,"Acinetobacter ursingii, isolate NO-Ab214, Acinetobacter ursingii, in combinations ETZ fixed at 8 mg/L",0.5 µg/mL
same,MIC,"Acinetobacter ursingii, isolate NO-Ab221, Acinetobacter ursingii, in combinations ETZ fixed at 8 mg/L",1 µg/mL
same,MIC,"Acinetobacter ursingii, isolate NO-Ab222, Acinetobacter ursingii, in combinations ETZ fixed at 8 mg/L",1 µg/mL
same,MIC,"Acinetobacter, MBC set, isolate NO-Ab84, A. bereziniae",1 µg/mL
same,MIC,"Acinetobacter, MBC set, isolate NO-Ab88, A. dijkshoorniae",2 µg/mL
same,MIC,"Acinetobacter, isolate NO-Ab146, Acinetobacter iwoffii, in combinations ETZ fixed at 8 mg/L",4 µg/mL
same,MIC,"Acinetobacter, isolate NO-Ab159, Acinetobacter iwoffii, in combinations ETZ fixed at 8 mg/L",2 µg/mL
same,MIC50,[1],2 µg/mL
same,MIC90,[1],4 µg/mL
same,MIC distribution 0.25,"cumulative share of A. non-baumannii isolates (n=87) at MIC 0.25 mg/L, ETZ fixed 8 mg/L in combinations",1.1
same,MIC distribution 0.5,"cumulative share of A. non-baumannii isolates (n=87) at MIC 0.5 mg/L, ETZ fixed 8 mg/L in combinations",9.2
same,MIC distribution 1,"cumulative share of A. non-baumannii isolates (n=87) at MIC 1 mg/L, ETZ fixed 8 mg/L in combinations",29.9
same,MIC distribution 2,"cumulative share of A. non-baumannii isolates (n=87) at MIC 2 mg/L, ETZ fixed 8 mg/L in combinations",75.9
same,MIC distribution 4,"cumulative share of A. non-baumannii isolates (n=87) at MIC 4 mg/L, ETZ fixed 8 mg/L in combinations",96.6
same,MIC distribution 8,"cumulative share of A. non-baumannii isolates (n=87) at MIC 8 mg/L, ETZ fixed 8 mg/L in combinations",98.9
same,MIC distribution 16,"cumulative share of A. non-baumannii isolates (n=87) at MIC 16 mg/L, ETZ fixed 8 mg/L in combinations",100
same,MIC distribution 32,"cumulative share of A. non-baumannii isolates (n=87) at MIC 32 mg/L, ETZ fixed 8 mg/L in combinations",100
same,MIC distribution ≤0.06,"cumulative share of A. non-baumannii isolates (n=87) at MIC ≤0.06 mg/L, ETZ fixed 8 mg/L in combinations",0
